Experimental data taken from patent publication US8188135B2, “Compounds as cannabinoid receptor ligands” (priority 2008, dated 2012).
Read-outs that look alike come from different tables or passages of the source.

Tests used:
human CB2 receptors = target: T1, human CB2 receptors (Homo sapiens, UniProt P34972); assay: human CB2 radioligand binding assay ([3H]CP 55,940 competition); details: HEK293 membranes, 0.5 nM [3H]CP 55,940
T1 construct: expressed in transfected cells; host or cells: HEK293
T1 sequence (P34972 whole entry): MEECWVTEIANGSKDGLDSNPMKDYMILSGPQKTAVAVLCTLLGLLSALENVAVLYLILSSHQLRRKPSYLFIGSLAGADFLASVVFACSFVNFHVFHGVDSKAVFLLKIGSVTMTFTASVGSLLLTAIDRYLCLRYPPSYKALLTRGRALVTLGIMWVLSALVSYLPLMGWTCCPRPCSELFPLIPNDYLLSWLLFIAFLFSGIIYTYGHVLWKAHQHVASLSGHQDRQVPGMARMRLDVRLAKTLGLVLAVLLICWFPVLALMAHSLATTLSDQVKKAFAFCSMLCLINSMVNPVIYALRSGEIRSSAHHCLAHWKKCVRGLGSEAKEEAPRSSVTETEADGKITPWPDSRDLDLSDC
Description: (§1) The CB1 and CB2 radioligand binding assays described herein are utilized to ascertain the affinity of compounds of the present application for binding to CB2 relative to CB1 receptors.
HEK293 cells stably expressing human CB2 receptors were grown until a confluent monolayer was formed. Briefly, the cells were harvested and homogenized in TE buffer (50 mM Tris-HCl, 1 mM MgCl2, and 1 mM EDTA) using a polytron for 2×10 second bursts in the presence of protease inhibitors, followed by centrifugation at 45,000×g for 20 minutes. The final membrane pellet was re-homogenized in storage buffer (50 mM Tris-HCl, 1 mM MgCl2, and 1 mM EDTA and 10% sucrose) and frozen at −78° C. until used. Saturation binding reactions were initiated by the addition of membrane preparation (protein concentration of 5 μg/well for human CB2) into wells of a deep well plate containing [^3H]CP 55,940 (120 Ci/mmol, a nonselective CB agonist commercially available from Tocris) in assay buffer (50 mM Tris, 2.5 mM EDTA, 5 mM MgCl2, and 0.5 mg/mL fatty acid free BSA, pH 7.4). After 90 min incubation at 30° C., binding reaction was terminated by the addition of 300 μL/well of cold assay buffer followed by rapid vacuum filtration through a UniFilter-96 GF/C filter plates (pre-soaked in 1 mg/mL BSA for 2 hours). The bound activity was counted in a TopCount using Microscint-20. Saturation experiments were conducted with twelve concentrations of [^3H]CP 55,940 ranging from 0.01 to 8 nM. Competition experiments were conducted with 0.5 nM [^3H]CP 55,940 and five concentrations (0.01 nM to 10 μM) of displacing ligands. The addition of 10 μM unlabeled CP 55,940 (Tocris, Ellisville, Mo.) was used to assess nonspecific binding.

rat CB2 = target: T2, rat CB2 (Rattus norvegicus, UniProt Q9QZN9); assay: rat CB2 radioligand binding assay ([3H]CP 55,940 competition); design: expressed in transfected cells; host or cells: HEK293; details: HEK293 membranes, 0.5 nM [3H]CP 55,940
T2 sequence (Q9QZN9 1-360): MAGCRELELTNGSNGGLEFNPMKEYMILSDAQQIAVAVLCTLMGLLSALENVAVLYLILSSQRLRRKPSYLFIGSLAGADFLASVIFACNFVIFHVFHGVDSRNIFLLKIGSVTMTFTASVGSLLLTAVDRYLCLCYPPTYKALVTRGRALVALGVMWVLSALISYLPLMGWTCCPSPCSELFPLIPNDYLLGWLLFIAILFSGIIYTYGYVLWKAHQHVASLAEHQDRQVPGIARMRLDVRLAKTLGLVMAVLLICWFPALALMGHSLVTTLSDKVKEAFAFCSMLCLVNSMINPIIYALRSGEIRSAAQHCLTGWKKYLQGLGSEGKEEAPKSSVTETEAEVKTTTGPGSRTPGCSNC
Description: as §1
HEK293 cells stably expressing rat CB2 receptors were grown until a confluent monolayer was formed. Briefly, the cells were harvested and homogenized in TE buffer (50 mM Tris-HCl, 1 mM MgCl2, and 1 mM EDTA) using a polytron for 2×10 second bursts in the presence of protease inhibitors, followed by centrifugation at 45,000×g for 20 minutes. The final membrane pellet was re-homogenized in storage buffer (50 mM Tris-HCl, 1 mM MgCl2, and 1 mM EDTA and 10% sucrose) and frozen at −78° C. until used. Saturation binding reactions were initiated by the addition of membrane preparation (protein concentration of 20 μg/well for rat CB2) into wells of a deep well plate containing [^3H]CP 55,940 (120 Ci/mmol, a nonselective CB agonist commercially available from Tocris) in assay buffer (50 mM Tris, 2.5 mM EDTA, 5 mM MgCl2, and 0.5 mg/mL fatty acid free BSA, pH 7.4). After 45 min incubation at 30° C., binding reaction was terminated by the addition of […] of cold assay buffer followed by rapid vacuum filtration through a UniFilter-96 GF/C filter plates (pre-soaked in 1 mg/mL BSA for 2 hours). The bound activity was counted in a TopCount using Microscint-20. Saturation experiments were conducted with twelve concentrations of [^3H]CP 55,940 ranging from 0.01 to 8 nM. Competition experiments were conducted with 0.5 nM [^3H]CP 55,940 and five concentrations of displacing ligands selected from the range of 0.01 nM to 10 μM. The addition of 10 μM unlabeled CP 55,940 (Tocris, Ellisville, Mo.) was used to assess nonspecific binding.

SMILES | Ki (human CB2 receptors; human CB2 (Ki, nM)) [nM] | Ki (rat CB2; rat CB2 (Ki, nM)) [nM] | Ki (human CB2 receptors; read-out: human CB2 (Ki)) [nM] | Ki (rat CB2; read-out: rat CB2 (Ki)) [nM]
CSCCCCOc1ccc(C(F)(F)F)cc1C(=O)/N=c1\cc(C(C)(C)C)n(C)n1C[C@H]1CCCO1 [Example 82, N-{(3E)-5-tert-butyl-1-methyl-2-[(2R)-tetrahydrofuran-2-ylmethyl]-1,2-dihydro-3 H-pyrazol-3-ylidene}-2-[4-(methylthio)butoxy]-5-(trifluoromethyl)benzamide] | 5.4 | 2.6 |  | 
Cn1c(C(C)(C)C)c/c(=N\C(=O)c2cc(C(F)(F)F)ccc2OCCCCS(C)(=O)=O)n1C[C@H]1CCCO1 [Example 83, N-{(3E)-5-tert-butyl-1-methyl-2-[(2R)-tetrahydrofuran-2-ylmethyl]-1,2-dihydro-3 H-pyrazol-3-ylidene}-2-[4-(methylsulfonyl)butoxy]-5-(trifluoromethyl)benzamide] | > 1000 | 305 |  | 
CCCCn1nc(C(C)(C)C)s/c1=N\C(=O)c1cc(C(F)(F)F)ccc1OCC(C)(C)O [Example 84, N-[(2Z)-3-butyl-5-tert-butyl-1,3,4-thiadiazol-2(3H)-ylidene]-2-(2-hydroxy-2-methylpropoxy)-5-(trifluoromethyl)benzamide] | 1.8 | 1.5 |  | 
CC(C)(C)c1nn(CCCC#N)/c(=N/C(=O)c2cc(C(F)(F)F)ccc2OCCCC#N)s1 [Example 85, N-[(2Z)-5-tert-butyl-3-(3-cyanopropyl)-1,3,4-thiadiazol-2(3H)-ylidene]-2-(3-cyanopropoxy)-5-(trifluoromethyl)benzamide] | 20 | 2.5 |  | 
CCCCn1ccc(C(C)(C)C)c/c1=N\C(=O)c1cc(C(F)(F)F)ccc1OCC(C)(C)O [Example 92, N-[(2E)-1-butyl-4-tert-butylpyridin-2(1H)-ylidene]-2-(2-hydroxy-2-methylpropoxy)-5-(trifluoromethyl)benzamide] | 73 | 47 |  | 
CCCCn1cc(C(C)(C)C)o/c1=N\C(=O)c1cc(C(F)(F)F)ccc1OCC(C)(C)O [Example 93, N-[(2Z)-3-butyl-5-tert-butyl-1,3-oxazol-2(3H)-ylidene]-2-(2-hydroxy-2-methylpropoxy)-5-(trifluoromethyl)benzamide] | 3.6 | 3.9 |  | 
CCCCN1CC(C)(C)S/C1=N\C(=O)c1cc(C(F)(F)F)ccc1OCC(C)(C)O [Example 94, N-[(2Z)-3-butyl-5,5-dimethyl-1,3-thiazolidin-2-ylidene]-2-(2-hydroxy-2-methylpropoxy)-5-(trifluoromethyl)benzamide] | 3.9 | 5 |  | 
Cn1c(C(C)(C)C)c/c(=N\C(=O)c2cc(C(F)(F)F)ccc2OCC(C)(C)O)n1CC1CCOCC1 [Example 95, N-[(3E)-5-tert-butyl-1-methyl-2-(tetrahydro-2H-pyran-4-ylmethyl)-1,2-dihydro-3 H-pyrazol-3-ylidene]-2-(2-hydroxy-2-methylpropoxy)-5-(trifluoromethyl)benzamide] |  |  | > 1000 | 331
CC(C)(O)COc1ccc(C(F)(F)F)cc1C(=O)/N=c1\sc(C(C)(C)C)nn1CC1CCO1 (stereo not drawn) [Example 96, N-[(2Z)-5-tert-butyl-3-(oxetan-2-ylmethyl)-1,3,4-thiadiazol-2(3H)-ylidene]-2-(2-hydroxy-2-methylpropoxy)-5-(trifluoromethyl)benzamide] | 9.4 | 6.1 |  | 
CC(C)(O)COc1ccc(C(F)(F)F)cc1C(=O)/N=c1\sc(C(C)(C)C)nn1CC1(C)COC1 [Example 97, N-[(2Z)-5-tert-butyl-3-[(3-methyloxetan-3-yl)methyl]-1,3,4-thiadiazol-2(3 H)-ylidene]-2-(2-hydroxy-2-methylpropoxy)-5-(trifluoromethyl)benzamide] | 31.6 | 13 |  | 
C[C@H](O)COc1ccc(C(F)(F)F)cc1C(=O)/N=c1\cc(C(C)(C)C)n(C)n1C[C@H]1CCCO1 [Example 98, N-{(3E)-5-tert-butyl-1-methyl-2-[(2R)-tetrahydrofuran-2-ylmethyl]-1,2-dihydro-3 H-pyrazol-3-ylidene}-2-{[(2S)-2-hydroxypropyl]oxy}-5-(trifluoromethyl)benzamide] | 4.6 | 6.6 |  | 
CCCCn1oc(C(C)(C)C)c/c1=N\C(=O)c1cc(C(F)(F)F)ccc1OCC(C)(C)O [Example 100, N-[(3E)-2-butyl-5-tert-butylisoxazol-3(2H)-ylidene]-2-(2-hydroxy-2-methylpropoxy)-5-(trifluoromethyl)benzamide] | 1.7 | 1.3 |  | 
C=CC(O)COc1ccc(C(F)(F)F)cc1C(=O)/N=c1\cc(C(C)(C)C)n(C)n1C[C@H]1CCCO1 (stereo partly drawn) [Example 101, N-{(3E)-5-tert-butyl-1-methyl-2-[(2R)-tetrahydrofuran-2-ylmethyl]-1,2-dihydro-3 H-pyrazol-3-ylidene}-2-[(2-hydroxybut-3-enyl)oxy]-5-(trifluoromethyl)benzamide] | 1 | 2.8 |  | 
C[C@H](O)[C@H](C)Oc1ccc(C(F)(F)F)cc1C(=O)/N=c1\cc(C(C)(C)C)n(C)n1C[C@H]1CCCO1 [Example 103, N-{(3E)-5-tert-butyl-1-methyl-2-[(2R)-tetrahydrofuran-2-ylmethyl]-1,2-dihydro-3 H-pyrazol-3-ylidene}-2-{[(1S,2S)-2-hydroxy-1-methylpropyl]oxy}-5-(trifluoromethyl)benzamide] | 3.8 | 1.7 |  | 
C[C@@H](O)[C@@H](C)Oc1ccc(C(F)(F)F)cc1C(=O)/N=c1\cc(C(C)(C)C)n(C)n1C[C@H]1CCCO1 [Example 104, N-{(3E)-5-tert-butyl-1-methyl-2-[(2R)-tetrahydrofuran-2-ylmethyl]-1,2-dihydro-3 H-pyrazol-3-ylidene}-2-{[(1R,2R)-2-hydroxy-1-methylpropyl]oxy}-5-(trifluoromethyl)benzamide] |  |  | > 1000 | 317
Cn1c(C(C)(C)C)c/c(=N\C(=O)c2cc(C(F)(F)F)ccc2OC[C@@H](O)CNC(C)(C)C)n1C[C@H]1CCCO1 [Example 105, 2-{[(2S)-3-(tert-butylamino)-2-hydroxypropyl]oxy}-N-{(3E)-5-tert-butyl-1-methyl-2-[(2R)-tetrahydrofuran-2-ylmethyl]-1,2-dihydro-3H-pyrazol-3-ylidene}-5-(trifluoromethyl)benzamide] |  |  | > 1000 | 406
Cn1c(C(C)(C)C)c/c(=N\C(=O)c2cc(C(F)(F)F)ccc2OCC(C)(C)O)n1CC1CCCC1 [Example 106, N-[(3E)-5-tert-butyl-2-(cyclopentylmethyl)-1-methyl-1,2-dihydro-3H-pyrazol-3-ylidene]-2-(2-hydroxy-2-methylpropoxy)-5-(trifluoromethyl)benzamide] | 6.6 | 8.7 |  | 
C=C[C@H](O)COc1ccc(C(F)(F)F)cc1C(=O)/N=c1\cc(C(C)(C)C)n(C)n1C[C@H]1CCCO1 [Example 107, N-{(3E)-5-tert-butyl-1-methyl-2-[(2R)-tetrahydrofuran-2-ylmethyl]-1,2-dihydro-3 H-pyrazol-3-ylidene}-2-{[(2S)-2-hydroxybut-3-enyl]oxy}-5-(trifluoromethyl)benzamide] | 2.4 | 2.9 |  | 
